In patent publication US10738084B2, “Macrocycles” (Sentry Therapeutics Limited, priority 2015, dated 2020):

Tested on: IL-2 production by Jurkat cells
Test: Inhibition of IL-2 production by Jurkat cells after PMA/PHA co-stimulation (ELISA)
Assay type: cell-based, human
Conditions: PMA and PHA co-stimulation; for IL-2% Inhibition: 24 hours
Method: Compounds of the invention were tested for their activity as inhibitors of T Cell stimulation by measuring the effect on IL-2 production by Jurkat cells following PMA (phorbol 12-myristate 13-acetate) and PHA (phytohemagglutinin) co-stimulation. All new compounds were tested at 0.1 uM, 1 uM and 10 uM. Cyclosporine A (control) was also tested at 0.1 uM, 1 uM and 10 uM. All compounds to be tested were dissolved in dimethyl sulfoxide. Cytotoxicity was evaluated with parallel Alamar Blue plates. Jurkat cells were seeded at 2×10^5 cells per well in 200 μL growth media in a clear, U-bottom 96-well plate. Cells were cultured in RPMI 1640 medium, 10% fetal bovine serum, and L-Glutamine with incubation at 37° C. with 5% carbon dioxide. After 1 hour of incubation the cells were stimulated with PMA (12.5 uL of a 1 ng/mL solution in 1% DMSO/media) and PHA (12.5 uL of a 5 ug/mL solution in PBS). After 24 hours the sample supernatants were harvested and stored at −80° C. A sample of the supernatant (25 uL) was diluted with RPMI (25 uL) and the concentration of human IL-2 was determined by ELISA (Pierce, EH2IL25).

Compound | IL-2% Inhibition (1 uM) [%] | IC50 [µM] | IL-2% Inhibition (10 uM) [%]
C=CC1CC(C)C(C2C(=O)NC(CC)C(=O)N(C)CC(=O)N(C)C(CC(C)(C)O)C(=O)NC(C(C)C)C(=O)N(C)C(CC(C)C)C(=O)NC(C)C(=O)NC(C)C(=O)N(C)C(CC(C)C)C(=O)N(C)C(CC(C)C)C(=O)N(C)C(C(C)C)C(=O)N2C)O1 [Example D, 1-[(2S)—N-methyl-2-[tetrahydro-5-ethenyl-3-methyl-2-furanyl]glycine]-4-(4-hydroxy-N-methyl-L-leucine)-cyclosporin A] | 8 | – | –
C=CC1CC(C)C(C2C(=O)NC(CC)C(=O)N(C)C(SCCN(C)C)C(=O)N(C)C(CC(C)(C)O)C(=O)NC(C(C)C)C(=O)N(C)C(CC(C)C)C(=O)NC(C)C(=O)NC(C)C(=O)N(C)C(CC(C)C)C(=O)N(C)C(CC(C)C)C(=O)N(C)C(C(C)C)C(=O)N2C)O1 [Example G, 1-[(2S)—N-methyl-2-[tetrahydro-5-ethenyl-3-methyl-2-furanyl]glycine]-3-[2R-[[2-(dimethylamino)ethyl]thio]-N-methylglycine]-4-(4-hydroxy-N-methyl-L-leucine)-cyclosporin A] | – | > 10 | –
CCC1CC(C)C([C@H]2C(=O)N[C@@H](CC)C(=O)N(C)[C@H](SCCN(C)C)C(=O)N(C)[C@@H](CC(C)(C)O)C(=O)N[C@@H](C(C)C)C(=O)N(C)[C@@H](CC(C)C)C(=O)N[C@@H](C)C(=O)N[C@H](C)C(=O)N(C)[C@@H](CC(C)C)C(=O)N(C)[C@@H](CC(C)C)C(=O)N(C)[C@@H](C(C)C)C(=O)N2C)O1 (stereo partly drawn) [Example F, 1-[(2S)—N-methyl-2-[tetrahydro-5-ethyl-3-methyl-2-furanyl]glycine]-3-[2R-[[2-(dimethylamino)ethyl]thio]-N-methylglycine]-4-(4-hydroxy-N-methyl-L-leucine)-cyclosporin A] | 2 | – | 5
CCC1CC(C)C([C@H]2C(=O)N[C@@H](CC)C(=O)N(C)CC(=O)N(C)[C@@H](CC(C)(C)O)C(=O)N[C@@H](C(C)C)C(=O)N(C)[C@@H](CC(C)C)C(=O)N[C@@H](C)C(=O)N[C@H](C)C(=O)N(C)[C@@H](CC(C)C)C(=O)N(C)[C@@H](CC(C)C)C(=O)N(C)[C@@H](C(C)C)C(=O)N2C)O1 (stereo partly drawn) [Example C, 1-[(2S)—N-Methyl-2-[tetrahydro-5-ethyl-3-methyl-2-furanyl]glycine]-4-(4-hydroxy-N-methyl-L-leucine)-cyclosporin A] | 16 | – | –
CCC1CC(C)C([C@H]2C(=O)N[C@@H](CC)C(=O)N(C)CC(=O)N(C)[C@@H](CC(C)C)C(=O)N[C@@H](C(C)C)C(=O)N(C)[C@@H](CC(C)C)C(=O)N[C@@H](C)C(=O)N[C@H](C)C(=O)N(C)[C@@H](CC(C)C)C(=O)N(C)[C@@H](CC(C)C)C(=O)N(C)[C@@H](C(C)C)C(=O)N2C)O1 (stereo partly drawn) [Example A, 1-[(2S)—N-Methyl-2-[tetrahydro-5-ethyl-3-methyl-2-furanyl]glycine]-cyclosporin A] | 84 | – | –
